pIC50: −log10 of the molar value.
System: SARS-CoV-2
Test: microbe, parasite or virus in culture
Details: Severe acute respiratory syndrome coronavirus 2, Vero C1008, 48 h; for IC50: read-out: pIC50 (converted)

Structure (SMILES) | pIC50 | IC50
Cc1nnc2n1-c1ccc(Cl)cc1C(c1ccccc1Cl)=NC2 [TRIAZOLAM] | < 4.70 | > 20 µM
O=C(Nc1ccc(Br)cc1)c1cc(Br)cc(Br)c1O [TRIBROMSALAN] | < 4.70 | > 20 µM
COP(=O)(OC)C(O)C(Cl)(Cl)Cl (stereo not given) [TRICHLORFON] | < 4.70 | > 20 µM
NS(=O)(=O)c1cc2c(cc1Cl)NC(C(Cl)Cl)NS2(=O)=O (stereo not given) [TRICHLORMETHIAZIDE] | < 4.70 | > 20 µM
CSc1nc2cc(Cl)c(Oc3cccc(Cl)c3Cl)cc2[nH]1 [TRICLABENDAZOLE] | < 4.70 | > 20 µM
O=C(Nc1ccc(Cl)cc1)Nc1ccc(Cl)c(Cl)c1 [TRICLOCARBAN] | < 4.70 | > 20 µM
CC[N+](CC)(CC)CCC(O)(c1ccccc1)C1CCCCC1 (stereo not given) [TRIDIHEXETHYL] | < 4.70 | > 20 µM
NCCNCCNCCN [TRIENTINE] | < 4.70 | > 20 µM
CN1C(=O)CC(=O)N(c2ccccc2)c2cc(C(F)(F)F)ccc21 [TRIFLUBAZAM] | < 4.70 | > 20 µM
O=C(CCCN1CCC(O)(c2cccc(C(F)(F)F)c2)CC1)c1ccc(F)cc1 [TRIFLUPERIDOL] | < 4.70 | > 20 µM
CN(C)CCCN1c2ccccc2Sc2ccc(C(F)(F)F)cc21 [TRIFLUPROMAZINE] | < 4.70 | > 20 µM
O=c1[nH]c(=O)n([C@H]2C[C@H](O)[C@@H](CO)O2)cc1C(F)(F)F [TRIFLURIDINE] | < 4.70 | > 20 µM
CC(=O)Oc1cc(C(F)(F)F)ccc1C(=O)O [TRIFLUSAL] | < 4.70 | > 20 µM
C[n+]1cccc(C(=O)[O-])c1 [TRIGONELLINE] | < 4.70 | > 20 µM
OC(CCN1CCCCC1)(c1ccccc1)C1CCCCC1 (stereo not given) [TRIHEXYPHENIDYL] | < 4.70 | > 20 µM
C[C@]12CC[C@H]3[C@@H](CC[C@@]45O[C@@H]4C(O)=C(C#N)C[C@]35C)[C@@H]1CC[C@@H]2O [TRILOSTANE] | < 4.70 | > 20 µM
COc1cc2c(N)nc(N3CCN(C(=O)OCC(C)(C)O)CC3)nc2c(OC)c1OC [TRIMAZOSIN] | < 4.70 | > 20 µM
CCC(COC(=O)c1cc(OC)c(OC)c(OC)c1)(c1ccccc1)N(C)C (stereo not given) [TRIMEBUTINE] | < 4.70 | > 20 µM
CCN(CC)CC(=O)Nc1c(C)cc(C)cc1C [TRIMECAINE] | < 4.70 | > 20 µM
COc1ccc(CN2CCNCC2)c(OC)c1OC [TRIMETAZIDINE] | < 4.70 | > 20 µM
CN1C(=O)OC(C)(C)C1=O [TRIMETHADIONE] | < 4.70 | > 20 µM
COc1cc(C(=O)NCc2ccc(OCCN(C)C)cc2)cc(OC)c1OC [TRIMETHOBENZAMIDE] | < 4.70 | > 20 µM
COc1cc(Cc2cnc(N)nc2N)cc(OC)c1OC [TRIMETHOPRIM] | < 4.70 | > 20 µM
CC(CC(c1ccccc1)c1ccccc1)N(C)C (stereo not given) [TRIMETHYLDIPHENYLPROPYLAMINE] | < 4.70 | > 20 µM
COc1cc(C(=O)N2CCOCC2)cc(OC)c1OC [TRIMETOZINE] | < 4.70 | > 20 µM

Source: ChEMBL document CHEMBL4651402, “Screening of ~5500 FDA-approved drugs and clinical candidates for anti-SARS-CoV-2 activity” (2021)
